Earlier results as cited in US20250262160A1, “COMPOSITIONS FOR MODIFIED RELEASE OF ACTIVE INGREDIENTS” (PROLEVI BIO AB, priority 2022, published 2025).
Where two headings read alike, the source gives them in different places.

Key:
[1] = assumed parameter for IVIVC, as reported in literature

COc1ccc2[nH]cc(CCNC(C)=O)c2c1 [melatonin]
Half-life (T1/2) [1]: 0.75 h | oral bioavailability (BA) [1]: 15% | Volume of distribution (Vd) ([1]; body weight 75 Kg): 1602 L

N[C@@H](Cc1cc(I)c(Oc2ccc(O)c(I)c2)c(I)c1)C(=O)O [Formulation T3, triiodothyronine]
Volume of distribution (Vd) (body weight 75 kg euthyroid individual, parameter used for IVIVC): 0.2 L/kg | Half-life (t½) after baseline (120 ng/dL) correction (estimated, parameter used for IVIVC): 4 h | elimination half-life (in adults): 23 to 25 h | biological half-life (in vivo): 2.5 days | estimated baseline corrected half-life (in vivo): 4 h | bioavailability (parameter used for IVIVC): 95% | Tmax (thyroidectomized patients administered exogenous hormone): 2.9 h | T1/2 half-life (thyroidectomized patients administered exogenous hormone, after last LT3 dose withdrawal): 3.62 h
